Data as given in patent US12723063B2, “GIPR-agonist compounds” (Eli Lilly and Company, priority 2019, dated 2026).
*1 amine or outer side, *2 acyl side, *3 side chain or, on linkers, in order; H or OH if unused. Where a SMILES comes first, the peptide text is derived from it. Side-chain parts run from the residue outwards. [ ]: non-standard residue; d: D form. The star is where a group is joined. C20 diacid = O=C(O)CCCCCCCCCCCCCCCCCCC(=O)*; γGlu = O=C(O)[C@H](CCC(=O)[*:2])N[*:1]; 4Pal = N[C@@H](Cc1ccncc1)C(=O)O; αMeL = CC(C)C[C@](C)(N)C(=O)O; Iva = CC[C@](C)(N)C(=O)O; Orn = NCCC[C@H](N)C(=O)O; AEEA = NCCOCCOCC(=O)O; Aib = CC(C)(N)C(=O)O

Molecular target: T1, human GLP-1R (Homo sapiens, UniProt P43220)
T1 construct: expressed in transfected cells; crude membranes
T1 sequence (P43220 24-463): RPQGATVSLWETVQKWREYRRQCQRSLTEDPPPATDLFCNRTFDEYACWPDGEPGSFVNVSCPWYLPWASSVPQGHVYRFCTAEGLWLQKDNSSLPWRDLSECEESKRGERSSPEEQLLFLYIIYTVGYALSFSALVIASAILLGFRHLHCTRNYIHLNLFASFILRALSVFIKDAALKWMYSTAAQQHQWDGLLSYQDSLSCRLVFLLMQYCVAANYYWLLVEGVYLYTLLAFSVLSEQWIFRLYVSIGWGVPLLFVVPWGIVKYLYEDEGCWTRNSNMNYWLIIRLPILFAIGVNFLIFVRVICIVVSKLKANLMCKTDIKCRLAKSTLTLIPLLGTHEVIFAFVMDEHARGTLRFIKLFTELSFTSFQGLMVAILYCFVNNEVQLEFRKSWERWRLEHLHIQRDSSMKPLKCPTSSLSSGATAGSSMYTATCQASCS
Test: [125I]-GLP-1 binding, SPA with WGA beads, 0.1% bacitracin
Settings: geometric mean, read-out: hGLP1R Ki
Outline: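 Binding buffer was 25 mM HEPES pH 7.4 with 2.5 mM CaCl2, 1 mM MgCl2, 0.1% (w/v) bacitracin, 0.003% Tween-20 and EDTA-free protease inhibitors. Four-parameter regression gave IC50, converted to Ki (geometric mean, SEM, n independent days).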

Structure (SMILES)	Ki [nM]
CC[C@H](C)[C@H](NC(=O)[C@H](CCCN)NC(=O)[C@H](CC(=O)O)NC(=O)[C@H](CC(C)C)NC(=O)[C@](C)(CC(C)C)NC(=O)[C@@H](NC(=O)[C@H](CO)NC(=O)[C@H](Cc1ccc(O)cc1)NC(=O)[C@H](CC(=O)O)NC(=O)[C@H](CO)NC(=O)[C@@H](NC(=O)[C@H](Cc1ccccc1)NC(=O)[C@@H](NC(=O)CNC(=O)[C@H](CCC(=O)O)NC(=O)C(C)(C)NC(=O)[C@@H](N)Cc1ccc(O)cc1)[C@@H](C)O)[C@@H](C)CC)[C@@H](C)CC)C(=O)N[C@@H](Cc1c[nH]cn1)C(=O)N[C@@H](CCC(N)=O)C(=O)NC(C)(C)C(=O)N[C@@H](CCC(=O)O)C(=O)N[C@@H](Cc1ccccc1)C(=O)N[C@H](C(=O)N[C@H](CCC(=O)O)C(=O)N[C@@H](Cc1ccc(O)cc1)C(=O)N[C@@H](CCCCNC(=O)COCCOCCNC(=O)COCCOCCNC(=O)CC[C@H](NC(=O)CCCCCCCCCCCCCCCCCCC(=O)O)C(=O)O)C(=O)N[C@@H](CC(C)C)C(=O)N[C@@H](CCC(=O)O)C(=O)NCC(=O)NCC(=O)N1CCC[C@H]1C(=O)N[C@@H](CO)C(=O)N[C@@H](CO)C(=O)NCC(=O)N[C@@H](C)C(=O)N1CCC[C@H]1C(=O)N1CCC[C@H]1C(=O)N1CCC[C@H]1C(=O)N[C@@H](CO)C(N)=O)C(C)C [Example 102] (H-Y[Aib]EGTFISDYSI[αMeL]LD[Orn]IHQ[Aib]EFV[dE]YK([AEEA-AEEA-γGlu-C20 diacid])LEGGPSSGAPPPS-NH2)	> 913
CC[C@H](C)[C@H](NC(=O)[C@H](CO)NC(=O)[C@H](Cc1ccc(O)cc1)NC(=O)[C@H](CC(=O)O)NC(=O)[C@H](CO)NC(=O)[C@@H](NC(=O)[C@](C)(CC)NC(=O)[C@@H](NC(=O)CNC(=O)[C@H](CCC(=O)O)NC(=O)C(C)(C)NC(=O)[C@@H](N)Cc1ccc(O)cc1)[C@@H](C)O)[C@@H](C)CC)C(=O)N[C@@](C)(CC(C)C)C(=O)N[C@@H](CC(C)C)C(=O)N[C@@H](CC(=O)O)C(=O)N[C@@H](CCCCN)C(=O)N[C@@H](CCCCNC(=O)COCCOCCNC(=O)COCCOCCNC(=O)CC[C@H](NC(=O)CCCCCCCCCCCCCCCCCCC(=O)O)C(=O)O)C(=O)N[C@@H](Cc1c[nH]cn1)C(=O)N[C@@H](CCC(N)=O)C(=O)NC(C)(C)C(=O)N[C@@H](CC(=O)O)C(=O)N[C@@H](Cc1ccccc1)C(=O)N[C@H](C(=O)N[C@@H](CCC(=O)O)C(=O)N[C@@H](Cc1ccncc1)C(=O)N[C@@H](CC(C)C)C(=O)N[C@@H](CC(C)C)C(=O)N[C@@H](CCC(=O)O)C(=O)N[C@@H](C)C(=O)NCC(=O)N1CCC[C@H]1C(=O)N[C@@H](CO)C(=O)N[C@@H](CO)C(=O)NCC(=O)N[C@@H](C)C(=O)N1CCC[C@H]1C(=O)N1CCC[C@H]1C(=O)N1CCC[C@H]1C(=O)N[C@@H](CO)C(N)=O)C(C)C [Example 88] (H-Y[Aib]EGT[Iva]ISDYSI[αMeL]LDKK([AEEA-AEEA-γGlu-C20 diacid])HQ[Aib]DFVE[4Pal]LLEAGPSSGAPPPS-NH2)	261
CC[C@H](C)[C@H](NC(=O)[C@H](Cc1ccccc1)NC(=O)[C@@H](NC(=O)CNC(=O)[C@H](CCC(=O)O)NC(=O)C(C)(C)NC(=O)[C@@H](N)Cc1ccc(O)cc1)[C@@H](C)O)C(=O)N[C@@H](CO)C(=O)N[C@@H](CC(=O)O)C(=O)N[C@@H](Cc1ccc(O)cc1)C(=O)N[C@@H](CO)C(=O)N[C@H](C(=O)N[C@@](C)(CC(C)C)C(=O)N[C@@H](CC(C)C)C(=O)N[C@@H](CC(=O)O)C(=O)N[C@@H](CCCN)C(=O)N[C@@H](CCCCNC(=O)COCCOCCNC(=O)COCCOCCNC(=O)CC[C@H](NC(=O)CCCCCCCCCCCCCCCCCCC(=O)O)C(=O)O)C(=O)N[C@@H](Cc1c[nH]cn1)C(=O)N[C@@H](CCC(N)=O)C(=O)NC(C)(C)C(=O)N[C@@H](CC(=O)O)C(=O)N[C@@H](Cc1ccccc1)C(=O)N[C@H](C(=O)N[C@@H](CCC(=O)O)C(=O)N[C@@H](Cc1ccncc1)C(=O)N[C@@H](CC(C)C)C(=O)N[C@@H](CC(C)C)C(=O)N[C@@H](CCC(=O)O)C(=O)N[C@H](C(=O)NCC(=O)N1CCC[C@H]1C(=O)N[C@@H](CO)C(=O)N[C@@H](CO)C(=O)NCC(=O)N[C@@H](C)C(=O)N1CCC[C@H]1C(=O)N1CCC[C@H]1C(=O)N1CCC[C@H]1C(=O)N[C@@H](CO)C(N)=O)[C@@H](C)O)C(C)C)[C@@H](C)CC [Example 80] (H-Y[Aib]EGTFISDYSI[αMeL]LD[Orn]K([AEEA-AEEA-γGlu-C20 diacid])HQ[Aib]DFVE[4Pal]LLETGPSSGAPPPS-NH2)	> 906
CC[C@H](C)[C@H](NC(=O)[C@H](CCCCN)NC(=O)[C@H](CC(=O)O)NC(=O)[C@H](CC(C)C)NC(=O)[C@](C)(CC(C)C)NC(=O)[C@@H](NC(=O)[C@H](CO)NC(=O)[C@H](Cc1ccc(O)cc1)NC(=O)[C@H](CC(=O)O)NC(=O)[C@H](CO)NC(=O)[C@@H](NC(=O)[C@H](Cc1ccccc1)NC(=O)[C@@H](NC(=O)CNC(=O)[C@H](CCC(=O)O)NC(=O)C(C)(C)NC(=O)[C@@H](N)Cc1ccc(O)cc1)[C@@H](C)O)[C@@H](C)CC)[C@@H](C)CC)C(=O)N[C@@H](Cc1c[nH]cn1)C(=O)N[C@@H](CCC(N)=O)C(=O)NC(C)(C)C(=O)N[C@@H](CC(=O)O)C(=O)N[C@@H](Cc1ccccc1)C(=O)N[C@H](C(=O)N[C@@H](CCC(=O)O)C(=O)N[C@@H](Cc1ccc(O)cc1)C(=O)N[C@@H](CCCCNC(=O)COCCOCCNC(=O)COCCOCCNC(=O)CC[C@H](NC(=O)CCCCCCCCCCCCCCCCCCC(=O)O)C(=O)O)C(=O)N[C@@H](CC(C)C)C(=O)N[C@@H](CCC(=O)O)C(=O)N[C@@H](CCC(N)=O)C(=O)NCC(=O)N1CCC[C@H]1C(=O)N[C@@H](CO)C(=O)N[C@@H](CO)C(=O)NCC(=O)N[C@@H](C)C(=O)N1CCC[C@H]1C(=O)N1CCC[C@H]1C(=O)N1CCC[C@H]1C(=O)N[C@@H](CO)C(N)=O)C(C)C [Example 92] (H-Y[Aib]EGTFISDYSI[αMeL]LDKIHQ[Aib]DFVEYK([AEEA-AEEA-γGlu-C20 diacid])LEQGPSSGAPPPS-NH2)	> 902
CC[C@H](C)[C@H](NC(=O)[C@H](CCCN)NC(=O)[C@H](CC(=O)O)NC(=O)[C@H](CC(C)C)NC(=O)[C@](C)(CC(C)C)NC(=O)[C@@H](NC(=O)[C@H](CO)NC(=O)[C@H](Cc1ccc(O)cc1)NC(=O)[C@H](CC(=O)O)NC(=O)[C@H](CO)NC(=O)[C@@H](NC(=O)[C@H](Cc1ccccc1)NC(=O)[C@@H](NC(=O)CNC(=O)[C@H](CCC(=O)O)NC(=O)C(C)(C)NC(=O)[C@@H](N)Cc1ccc(O)cc1)[C@@H](C)O)[C@@H](C)CC)[C@@H](C)CC)C(=O)N[C@@H](Cc1c[nH]cn1)C(=O)N[C@@H](CCC(N)=O)C(=O)NC(C)(C)C(=O)N[C@@H](CCC(=O)O)C(=O)N[C@@H](Cc1ccccc1)C(=O)N[C@H](C(=O)N[C@@H](CCC(=O)O)C(=O)N[C@@H](Cc1ccncc1)C(=O)N[C@@H](CCCCNC(=O)COCCOCCNC(=O)COCCOCCNC(=O)CC[C@H](NC(=O)CCCCCCCCCCCCCCCCCCC(=O)O)C(=O)O)C(=O)N[C@@H](CC(C)C)C(=O)N[C@@H](CCC(=O)O)C(=O)N[C@@H](C)C(=O)NCC(=O)N1CCC[C@H]1C(=O)N[C@@H](CO)C(=O)N[C@@H](CO)C(=O)NCC(=O)N[C@@H](C)C(=O)N1CCC[C@H]1C(=O)N1CCC[C@H]1C(=O)N1CCC[C@H]1C(=O)N[C@@H](CO)C(N)=O)C(C)C [Example 122] (H-Y[Aib]EGTFISDYSI[αMeL]LD[Orn]IHQ[Aib]EFVE[4Pal]K([AEEA-AEEA-γGlu-C20 diacid])LEAGPSSGAPPPS-NH2)	> 913
